{"source": "patent US11766404B2", "about": "“Bioavailable dithiocarbamate-metal complex particles, method of preparation and use thereof” (priority 2018, dated 2023)", "key": {"[1]": {"tested_on": "MDA-MB-231 breast cancer tumours subcutaneously xenografted into the SCID mice", "assay": "Growth of MDA-MB-231 tumours xenografted into SCID mice", "format": "in vivo", "conditions": "CuET 1 mg/kg i.p., 5 days ON and 2 days OFF", "method": "To test directly effect of CuET-albumin nanoparticles we used MDA-MB-231 and AMO1 models. MDA-MB-231 was injected (5*10^6 cells were transplanted s.c.) to grow tumours in SCID mice (Anlab, CZ). Similarly, the AMO-1 xenografts were expanded in SCID mice. Each group consisted of 10 animals, each bearing two tumours. CuET was formulated as nanoparticulate system in mouse serum albumin according to Example 12 or as the neat CuET powder (obtained from TOKYO CHEMICAL […] CO., LTD.) dissolved in olive oil which is a standard formulation for non-polar compounds applied intraperitoneally in the mice experiments to final concentration 1 mg/ml. Olive oil alone and mouse serum albumin solutions were used as the vehicle controls. All solutions were applied intraperitoneally in a schedule 5 days ON and 2 days OFF, the CuET was applied in the final dose 1 mg per kg of body weight. All aspects of the animal studies met the accepted criteria for the care and experimental use of laboratory animals."}, "[2]": {"conditions": "cited from earlier work"}}}
{"smiles": "CCN(CC)C(=S)[S-].CCN(CC)C(=S)[S-].[Cu+2]", "note": "[neat CuET powder, bis(diethyldithiocarbamate)copper(II)]", "values": [{"measurement": "effect on tumour growth", "setting": "[1]", "value": "Only the CuET-albumin nanoparticle shows significant effect"}, {"measurement": "solubility constant in water", "setting": "[2]", "value": "in the range of nanograms per litre"}]}
